pIC50: −log10 of the molar value.

The first series has as its target T1, progesterone receptor (PR) (Homo sapiens, UniProt P06401).
T1 construct: made in house
T1 sequence (P06401 1-933): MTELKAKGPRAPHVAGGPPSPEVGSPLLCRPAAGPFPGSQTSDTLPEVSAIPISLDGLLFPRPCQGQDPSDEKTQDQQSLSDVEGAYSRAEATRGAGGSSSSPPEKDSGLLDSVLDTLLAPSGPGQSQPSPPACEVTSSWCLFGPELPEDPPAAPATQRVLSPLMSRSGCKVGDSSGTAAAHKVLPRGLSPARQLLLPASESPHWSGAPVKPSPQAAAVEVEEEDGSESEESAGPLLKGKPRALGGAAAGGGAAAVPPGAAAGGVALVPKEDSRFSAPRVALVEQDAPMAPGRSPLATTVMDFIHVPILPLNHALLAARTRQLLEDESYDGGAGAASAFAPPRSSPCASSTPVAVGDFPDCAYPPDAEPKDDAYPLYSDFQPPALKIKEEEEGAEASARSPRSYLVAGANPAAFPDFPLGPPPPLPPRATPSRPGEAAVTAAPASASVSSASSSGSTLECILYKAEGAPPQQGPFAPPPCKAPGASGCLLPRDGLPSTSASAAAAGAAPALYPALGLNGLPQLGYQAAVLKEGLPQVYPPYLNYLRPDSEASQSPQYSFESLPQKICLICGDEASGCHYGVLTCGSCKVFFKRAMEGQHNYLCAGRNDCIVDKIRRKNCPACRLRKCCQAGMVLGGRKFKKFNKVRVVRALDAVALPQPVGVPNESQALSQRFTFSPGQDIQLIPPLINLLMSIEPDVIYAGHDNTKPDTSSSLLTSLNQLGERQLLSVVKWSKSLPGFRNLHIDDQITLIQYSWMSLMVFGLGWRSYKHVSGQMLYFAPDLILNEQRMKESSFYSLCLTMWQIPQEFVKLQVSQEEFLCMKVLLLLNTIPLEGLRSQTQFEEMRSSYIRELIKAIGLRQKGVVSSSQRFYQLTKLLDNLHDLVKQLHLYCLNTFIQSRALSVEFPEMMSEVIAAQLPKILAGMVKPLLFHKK
Nature of the series: Binding to the progesterone receptor, recombinantly produced receptor.
Settings: not given
The source says:
(§1) The binding of the substances to the glucocorticoid receptor (GR) and other steroid-hormone receptors (mineral corticoid receptor (MR), progesterone receptor (PR) and androgen receptor (AR)) is examined with the aid of recombinantly produced receptors. Cytosol preparations of Sf9 cells, which had been infected with recombinant baculoviruses that code for the GR, are used for the binding studies. In comparison to the reference substance [^3H]-dexamethasone, the substances show a high affinity to the GR.
As a reminder, the pIC50 is the negative decadic logarithm of the IC50, by convention in mol/L. On to `CC1(C)CC(O)(C(F)(F)F)C(Nc2cccc3[nH]ncc23)c2cc(F)cc(O)c21` (centres unmarked) [Example 49, 7-Fluoro-1-[(1H-indazol-4-yl)amino]-4,4-dimethyl-2-(trifluoromethyl)-1,2,3,4-tetrahydronaphthalene-2,5-diol], for which the pIC50 was 6.34.

In a further series the target is T2, glucocorticoid receptor (GR) (Homo sapiens, UniProt P04150).
T2 construct: made in house; host or cells: Sf9 cells infected with recombinant baculovirus (cytosol preparation)
T2 sequence (P04150 1-777): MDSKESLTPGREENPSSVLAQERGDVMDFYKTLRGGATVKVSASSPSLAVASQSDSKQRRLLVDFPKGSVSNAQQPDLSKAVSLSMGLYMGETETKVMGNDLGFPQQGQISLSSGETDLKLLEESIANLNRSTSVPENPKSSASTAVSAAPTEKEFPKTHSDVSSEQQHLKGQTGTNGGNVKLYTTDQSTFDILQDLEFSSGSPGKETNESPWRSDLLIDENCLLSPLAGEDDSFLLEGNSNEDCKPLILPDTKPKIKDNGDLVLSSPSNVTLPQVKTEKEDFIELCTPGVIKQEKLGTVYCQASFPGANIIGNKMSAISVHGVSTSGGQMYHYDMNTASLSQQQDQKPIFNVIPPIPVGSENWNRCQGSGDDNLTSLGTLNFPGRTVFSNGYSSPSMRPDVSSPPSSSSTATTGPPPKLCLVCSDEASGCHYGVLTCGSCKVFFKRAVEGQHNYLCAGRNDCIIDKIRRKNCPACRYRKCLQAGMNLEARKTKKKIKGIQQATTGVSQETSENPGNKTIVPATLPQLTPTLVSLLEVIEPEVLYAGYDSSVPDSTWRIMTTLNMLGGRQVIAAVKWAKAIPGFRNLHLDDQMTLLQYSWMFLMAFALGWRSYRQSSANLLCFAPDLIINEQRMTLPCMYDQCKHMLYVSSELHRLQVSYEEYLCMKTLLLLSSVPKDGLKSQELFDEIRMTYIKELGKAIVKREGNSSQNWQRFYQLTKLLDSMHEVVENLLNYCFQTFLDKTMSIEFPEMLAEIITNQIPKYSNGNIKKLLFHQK
Put plainly: Binding to the glucocorticoid receptor, recombinantly produced receptor, cytosol preparations of Sf9 cells. Particulars: reference substance [3H]-dexamethasone.
From the text: as §1
Take `CC1(C)CC(O)(C(F)(F)F)C(Nc2cccc3[nH]ncc23)c2cc(F)cc(O)c21` (centres unmarked) [Example 49, 7-Fluoro-1-[(1H-indazol-4-yl)amino]-4,4-dimethyl-2-(trifluoromethyl)-1,2,3,4-tetrahydronaphthalene-2,5-diol]: the pIC50 is 7.02.

Tested on in a further series: not given
Experiment: not given
Settings: not given
As usually defined, the melting point is the temperature of the solid-liquid transition. In the case of `CC1(C)CC(O)(C(F)(F)F)C(Nc2cccc3[nH]ncc23)c2c(F)ccc(F)c21` (racemic) [Example 105, Rac.-5,8-Difluoro-1-[(1H-indazol-4-yl)amino]-4,4-dimethyl-2-(trifluoromethyl)-1,2,3,4-tetrahydronaphthalen-2-ol], the melting point was 209 to 221 °C.

In the case of `CC1(C)CC(O)(C(F)(F)F)C(Nc2cccc3[nH]c(=O)ccc23)c2cc(O)c(Cl)cc21` (centres unmarked) [Example 134, 5-(6-Chloro-2,7-dihydroxy-4,4-dimethyl-2-(trifluoromethyl)-1,2,3,4-tetrahydronaphthalen-1-ylamino)-1H-quinolin-2-one], the melting point turned out to be 158 °C.

For the compound `COc1ccc2c(c1)C(Nc1ccc(F)c3nc(C)ncc13)C(O)(C(F)(F)F)CC2(C)C` (centres unmarked) [Example 135, 1-(8-Fluoro-2-methylquinazolin-5-ylamino)-7-methoxy-4,4-dimethyl-2-(trifluoromethyl)-1,2,3,4-tetrahydronaphthalen-2-ol], the melting point was determined as 97 °C.

Regarding `COc1ccc2c(c1)C(Nc1cccc3[nH]c(=O)ccc13)C(O)(C(F)(F)F)CC2(C)C` (centres unmarked) [Example 136, 5-(2-Hydroxy-7-methoxy-4,4-dimethyl-2-(trifluoromethyl)-1,2,3,4-tetrahydronaphthalen-1-ylamino)-1H-quinolin-2-one], the melting point was determined as 128 °C.

In turn, `COc1ccc2c(c1)C(Nc1cccc3c(=O)[nH]ccc13)C(O)(C(F)(F)F)CC2(C)C` (centres unmarked) [Example 137, 5-(2-Hydroxy-7-methoxy-4,4-dimethyl-2-(trifluoromethyl)-1,2,3,4-tetrahydronaphthalen-1-ylamino)-2H-isoquinolin-1-one] returned a melting point of 112 °C.

For `COc1ccc2c(c1)C(Nc1cccc3c(=O)[nH]ncc13)C(O)(C(F)(F)F)CC2(C)C` (centres unmarked) [Example 138, 5-(2-Hydroxy-7-methoxy-4,4-dimethyl-2-(trifluoromethyl)-1,2,3,4-tetrahydronaphthalen-1-ylamino)-2H-phthalazin-1-one], the melting point worked out at 197 °C.

As to `COc1ccc2c(c1)C(Nc1cccc3nc(C)ccc13)C(O)(C(F)(F)F)CC2(C)C` (centres unmarked) [Example 139, 7-Methoxy-4,4-dimethyl-1-(2-methylquinolin-5-ylamino)-2-(trifluoromethyl)-1,2,3,4-tetrahydronaphthalen-2-ol], the melting point came out at 85 °C.

As for `Cc1ccc2c(NC3c4cc(O)ccc4C(C)(C)CC3(O)C(F)(F)F)cccc2n1` (centres unmarked) [Example 140, 4,4-Dimethyl-1-(2-methylquinolin-5-ylamino)-2-(trifluoromethyl)-1,2,3,4-tetrahydronaphthalene-2,7-diol], the melting point was 127 °C.

For the compound `CC1(C)CC(O)(C(F)(F)F)C(Nc2cccc3c(=O)[nH]ncc23)c2cc(O)ccc21` (centres unmarked) [Example 141, 5-(2,7-Dihydroxy-4,4-dimethyl-2-(trifluoromethyl)-1,2,3,4-tetrahydronaphthalen-1-ylamino)-2H-phthalazin-1-one], the melting point came to 116 °C.

`COc1cccc2c1CCC(O)(C(F)(F)F)C2Nc1cccc2[nH]c(=O)ccc12` (centres unmarked) [Example 144, 5-(2-Hydroxy-5-methoxy-2-(trifluoromethyl)-1,2,3,4-tetrahydronaphthalen-1-ylamino)-1H-quinolin-2-one] yielded a melting point of 228 °C.

Turning to `COc1cccc2c1CCC(O)(C(F)(F)F)C2Nc1ccc(F)c2nc(C)ncc12` (centres unmarked) [Example 145, 1-(8-Fluoro-2-methylquinazolin-5-ylamino)-5-methoxy-2-(trifluoromethyl)-1,2,3,4-tetrahydro-naphthalen-2-ol], the melting point turned out to be 132 °C.

Another series concerns secretion of cytokine IL-8 in the human monocyte cell line THP-1. Nature of the series: Inhibition of LPS-triggered secretion of cytokine IL-8 in THP-1 cells (ELISA). The class given is cell-based. Particulars: THP-1, supernatant ELISA, read-out: IC50(IL8). As to the method: The concentration of the cytokines was determined in the supernatant by means of commercially available ELISA kits.
In the case of `CC1(C)CC(O)(C(F)(F)F)C(Nc2cccc3[nH]ncc23)c2cc(F)cc(O)c21` (centres unmarked) [Example 49, 7-Fluoro-1-[(1H-indazol-4-yl)amino]-4,4-dimethyl-2-(trifluoromethyl)-1,2,3,4-tetrahydronaphthalene-2,5-diol], the pIC50 was 7.72.

These data come from US7638515B2, “Tetrahydronaphthalene derivatives, process for their production and their use as anti-inflammatory agents” (Bayer Schering Pharma Aktiengesellschaft, priority 2003, dated 2009).
